Values of other authors, collected in patent US20140106008A1, “GLYCEROL COMPOSITIONS AND SOLUTIONS” (BIO-ENERGY INGREDIENTS LIMITED, priority 2011, published 2014).

Test system: exposed organisms
Settings: aquatic toxicity

OCC(O)CO [Glycerol, propane-1,2,3-triol]
TLm96 value, concentration that will kill 50% of the exposed organisms in 96 hours: over 1000 mg/litre
